Experimental data as given in patent US7858635B2 (priority 2005, dated 2010).

Columns and labels:
M1 muscarinic receptor = biological target: T1, M1 muscarinic receptor (Homo sapiens, UniProt P11229); experiment: Functional mobilization of intracellular calcium (FLIPR, Fluo-3), M1-CHO cells; type: cell-based; settings: compound nos. 1-454; for Emax: 100% efficacy is the maximum response obtained with the Carbachol control, read-out: M1 Efficacy; for M1 Activity: M1-CHO cells, calcium mobilization
T1 construct: expressed in transfected cells; host or cells: CHO cells (M1-CHO, under zeocin and G418 selection)
T1 sequence (P11229 1-460): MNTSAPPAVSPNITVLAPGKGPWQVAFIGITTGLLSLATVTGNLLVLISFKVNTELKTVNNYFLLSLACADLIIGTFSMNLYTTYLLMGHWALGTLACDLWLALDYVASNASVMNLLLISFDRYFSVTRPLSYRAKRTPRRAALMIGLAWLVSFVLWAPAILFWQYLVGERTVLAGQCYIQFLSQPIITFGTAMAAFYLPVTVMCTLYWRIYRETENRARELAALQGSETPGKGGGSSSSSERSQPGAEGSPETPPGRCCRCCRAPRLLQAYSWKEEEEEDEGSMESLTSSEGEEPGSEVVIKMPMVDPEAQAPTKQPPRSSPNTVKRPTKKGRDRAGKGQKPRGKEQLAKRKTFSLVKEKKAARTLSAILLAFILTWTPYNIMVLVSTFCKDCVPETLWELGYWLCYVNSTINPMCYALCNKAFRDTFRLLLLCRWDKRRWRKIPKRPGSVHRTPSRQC
Summary of the method: (§1)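 CHO lines stably carrying the muscarinic subtype, dye-loaded with Fluo-3 at 37° C for 60-90 min, receive test compound in 0.5% DMSO. Agonist effects are read directly; antagonist effects against carbachol at EC80 after 15 min pre-incubation.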

M4 muscarinic receptor = biological target: T2, M4 muscarinic receptor (Homo sapiens, UniProt P08173); experiment: Functional mobilization of intracellular calcium (FLIPR, Fluo-3), M4-CHO cells; type: cell-based; settings: compound nos. 1-454; for Emax: 100% efficacy is the maximum response obtained with the Carbachol control, read-out: M4 Efficacy; for M4 Activity: M4-CHO cells, calcium mobilization
T2 construct: expressed in transfected cells; host or cells: CHO cells (M4-CHO, under puromycin, zeocin and blasticidin selection)
T2 sequence (P08173 1-479): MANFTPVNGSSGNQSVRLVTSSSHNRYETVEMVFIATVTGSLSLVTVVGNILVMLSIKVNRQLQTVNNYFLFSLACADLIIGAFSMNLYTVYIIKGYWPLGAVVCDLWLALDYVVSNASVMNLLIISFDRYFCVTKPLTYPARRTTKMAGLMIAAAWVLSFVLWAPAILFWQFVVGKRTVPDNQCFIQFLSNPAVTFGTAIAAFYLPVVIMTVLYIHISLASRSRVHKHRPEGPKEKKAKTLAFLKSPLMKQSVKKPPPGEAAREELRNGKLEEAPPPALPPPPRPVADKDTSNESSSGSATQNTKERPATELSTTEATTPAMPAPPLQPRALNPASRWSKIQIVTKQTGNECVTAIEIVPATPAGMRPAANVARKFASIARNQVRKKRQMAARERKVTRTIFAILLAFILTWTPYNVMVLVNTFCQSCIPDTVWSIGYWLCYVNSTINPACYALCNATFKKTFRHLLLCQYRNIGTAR
Summary of the method: as §1

CCOC(=O)N1CCC(N2CCC3(CC2)CN(C(=O)c2ccccc2OC)c2ccc(F)cc23)CC1 [compound 262]
Emax (M1 muscarinic receptor): < 65%
M1 Activity (M1 muscarinic receptor): + (activity was measured to be greater than or equal to 3.0 μM)
Emax (M4 muscarinic receptor): < 55%
M4 Activity (M4 muscarinic receptor): + (activity was measured to be greater than or equal to 4.0 μM)

C1=C[C@H]2C[C@H]1C[C@@H]2CN1CCC2(CCc3ccccc32)CC1 [compound 263]
Emax (M1 muscarinic receptor): < 65%
M1 Activity (M1 muscarinic receptor): +++ (activity was measured to be less than or equal to 0.7 μM)
Emax (M4 muscarinic receptor): < 55%
M4 Activity (M4 muscarinic receptor): +++ (activity was measured to be less than or equal to 0.1 μM)

Cc1ccc2c(c1)C1(CCN([C@@H]3C[C@@H]4CC[C@@H]3C4)CC1)CN2 [compound 264]
Emax (M1 muscarinic receptor): < 65%
M1 Activity (M1 muscarinic receptor): + (activity was measured to be greater than or equal to 3.0 μM)
Emax (M4 muscarinic receptor): < 55%
M4 Activity (M4 muscarinic receptor): + (activity was measured to be greater than or equal to 4.0 μM)

COCCOC(=O)N1CCC(N2CCC3(CC2)CN(C(=O)N(C)C)c2ccc(F)cc23)CC1 [compound 265]
Emax (M1 muscarinic receptor): < 65%
M1 Activity (M1 muscarinic receptor): ++ (activity was measured to be between 0.7 μM and 3.0 μM)
Emax (M4 muscarinic receptor): < 55%
M4 Activity (M4 muscarinic receptor): ++ (activity was measured to be between 0.1 μM and 4.0 μM)

CCCOC(=O)N1CCCC(N2CCC3(CC2)CN(C(C)=O)c2ccc(F)cc23)CC1 (stereo not shown) [compound 266]
Emax (M1 muscarinic receptor): < 65%
M1 Activity (M1 muscarinic receptor): + (activity was measured to be greater than or equal to 3.0 μM)
Emax (M4 muscarinic receptor): < 55%
M4 Activity (M4 muscarinic receptor): + (activity was measured to be greater than or equal to 4.0 μM)

CCOC(=O)N1CCC(N2CCC3(CC2)CN(C(=O)c2ccccc2F)c2ccc(F)cc23)CC1 [compound 267]
Emax (M1 muscarinic receptor): < 65%
M1 Activity (M1 muscarinic receptor): + (activity was measured to be greater than or equal to 3.0 μM)
Emax (M4 muscarinic receptor): < 55%
M4 Activity (M4 muscarinic receptor): + (activity was measured to be greater than or equal to 4.0 μM)

CC(=O)N1CC2(CCN(C3CCOCC3)CC2)c2cc(F)ccc21 [compound 268]
Emax (M1 muscarinic receptor): < 65%
M1 Activity (M1 muscarinic receptor): + (activity was measured to be greater than or equal to 3.0 μM)
Emax (M4 muscarinic receptor): < 55%
M4 Activity (M4 muscarinic receptor): + (activity was measured to be greater than or equal to 4.0 μM)

CC(=O)N1CC2(CCN(C3CCN(C(=O)OC(C)C)CC3)CC2)c2cc(F)ccc21 [compound 269]
Emax (M1 muscarinic receptor): 65 to 85%
M1 Activity (M1 muscarinic receptor): +++ (activity was measured to be less than or equal to 0.7 μM)
Emax (M4 muscarinic receptor): > 70%
M4 Activity (M4 muscarinic receptor): +++ (activity was measured to be less than or equal to 0.1 μM)

CCCCC(=O)N1CC2(CCN(C3CCN(C(=O)OCC)CC3)CC2)c2cc(F)ccc21 [compound 270]
Emax (M1 muscarinic receptor): 65 to 85%
M1 Activity (M1 muscarinic receptor): +++ (activity was measured to be less than or equal to 0.7 μM)
Emax (M4 muscarinic receptor): > 70%
M4 Activity (M4 muscarinic receptor): +++ (activity was measured to be less than or equal to 0.1 μM)

O=C(OC1CCCC1)N1C2CCC1CC(N1CCC3(CC1)C(=O)Nc1ccccc13)C2 (stereo not shown) [compound 271]
Emax (M1 muscarinic receptor): 65 to 85%
M1 Activity (M1 muscarinic receptor): +++ (activity was measured to be less than or equal to 0.7 μM)
Emax (M4 muscarinic receptor): < 55%
M4 Activity (M4 muscarinic receptor): +++ (activity was measured to be less than or equal to 0.1 μM)

c1ccc2c(c1)NCC21CCN(C2CC3CCC2C3)CC1 (stereo not shown) [compound 272]
Emax (M1 muscarinic receptor): 65 to 85%
M1 Activity (M1 muscarinic receptor): +++ (activity was measured to be less than or equal to 0.7 μM)
Emax (M4 muscarinic receptor): > 70%
M4 Activity (M4 muscarinic receptor): +++ (activity was measured to be less than or equal to 0.1 μM)

CC(=O)N[C@H]1CC2(CCN(C3CCC(c4ccccc4)CC3)CC2)c2ccccc21 (stereo partly shown) [compound 273]
Emax (M1 muscarinic receptor): > 85%
M1 Activity (M1 muscarinic receptor): +++ (activity was measured to be less than or equal to 0.7 μM)
Emax (M4 muscarinic receptor): > 70%
M4 Activity (M4 muscarinic receptor): ++ (activity was measured to be between 0.1 μM and 4.0 μM)

CCOC(=O)N[C@@H]1CC2(CCN(C[C@H]3C[C@H]4CC[C@H]3C4)CC2)c2ccccc21 [compound 275]
Emax (M1 muscarinic receptor): 65 to 85%
M1 Activity (M1 muscarinic receptor): +++ (activity was measured to be less than or equal to 0.7 μM)
Emax (M4 muscarinic receptor): > 70%
M4 Activity (M4 muscarinic receptor): ++ (activity was measured to be between 0.1 μM and 4.0 μM)
